We go through six compounds from ChEMBL document CHEMBL3817759, “Novel drug design for Chagas disease via targeting Trypanosoma cruzi tubulin: Homology modeling and binding pocket prediction on Trypanosoma cruzi tubulin polymerization inhibition by naphthoquinone derivatives” (Bioorg Med Chem, 2016).

Molecules are shown by their SMILES.

Test [1] in a line: Inhibition of Trypanosoma cruzi tubulin polymerization incubated at room temperature for 15 mins followed by 5 mins at 4 degC in presence of GTP by photometric method.
Test [2] relates to Trypanosoma cruzi. The test can be described thus: Antitrypanosomal activity against epimastigote stage of Trypanosoma cruzi Tulahuen CL98 after 48 hrs by hemocytometry. Particulars: Tulahuen CL98, 48 h. It is filed as functional, organism-based.

As to `O=C1C(Cl)=C(N(C(=O)c2cccc(Cl)c2)C(=O)c2cccc(Cl)c2)C(=O)c2ccccc21`, the IC50 – broadly, the concentration that gives 50% inhibition – came to 8 µM in test [1] and 2.23 µM in test [2].

In test [2], `CC1CS(=O)(=O)CCN1/N=C/c1ccc([N+](=O)[O-])o1` (stereo unspecified) [NIFURTIMOX] displayed an IC50 of 10.7 µM.

On to `O=C1C(Cl)=C(N(C(=O)CCl)C(=O)CCl)C(=O)c2ccccc21`, for which the values for the IC50 in test [1] and in test [2] were greater than 40 µM and 6.1 µM, respectively.

Turning to `O=C1C(Cl)=C(N2C(=O)CCC2=O)C(=O)c2ccccc21`, the IC50 in test [1] turned out to be 6 µM; in test [2] it was 2.77 µM.

As for `O=C1C(Cl)=C(N2C(=O)c3ccccc3C2=O)C(=O)c2ccccc21`, the IC50 in test [1] was found to be 12 µM; in test [2], 4.83 µM.

As to `CCCC(=O)N(C(=O)CCC)C1=C(Cl)C(=O)c2ccccc2C1=O`, the figures for the IC50 in test [1] and in test [2] were 3.2 µM and 0.7 µM, respectively.
